ChEMBL document CHEMBL2413072, “Synthesis and in vitro anticancer studies of novel C-2 arylidene congeners of lantadenes” (2013)

Columns and labels:
Assay type in all cases: functional
[1] = system: RPMI-8226; experiment: Growth inhibition of human RPMI8226 cells assessed as cell growth at 10^-8 M by sulforhodamine B assay; conditions: read-out: Activity
[2] = system: RPMI-8226; experiment: Growth inhibition of human RPMI8226 cells assessed as cell growth at 10^-7 M by sulforhodamine B assay; conditions: read-out: Activity
[3] = system: HT-29; experiment: Growth inhibition of human HT-29 cells assessed as cell growth at 10^-8 M by sulforhodamine B assay; conditions: read-out: Activity
[4] = system: IGROV-1; experiment: Growth inhibition of human IGROV1 cells assessed as cell growth at 10^-7 M by sulforhodamine B assay; conditions: read-out: Activity
[5] = system: HOP-62; experiment: Growth inhibition of human HOP62 cells assessed as cell growth at 10^-7 M by sulforhodamine B assay; conditions: read-out: Activity
[6] = system: NCI-H322M; experiment: Growth inhibition of human NCI-H322M cells assessed as cell growth at 10^-4 M by sulforhodamine B assay; conditions: read-out: Activity
[7] = system: RXF 393; experiment: Growth inhibition of human RXF393 cells by sulforhodamine B assay
[8] = system: SK-MEL-5; experiment: Growth inhibition of human SK-MEL-5 cells assessed as cell growth at 10^-7 M by sulforhodamine B assay; conditions: read-out: Activity
[9] = system: OVCAR-4; experiment: Growth inhibition of human OVCAR4 cells assessed as cell growth at 10^-4 M by sulforhodamine B assay; conditions: read-out: Activity
[10] = system: OVCAR-3; experiment: Growth inhibition of human OVCAR3 cells assessed as cell growth at 10^-7 M by sulforhodamine B assay; conditions: read-out: Activity
[11] = system: ACHN; experiment: Growth inhibition of human ACHN cells assessed as cell growth at 10^-7 M by sulforhodamine B assay; conditions: read-out: Activity
[12] = system: CAKI-1; experiment: Growth inhibition of human CAKI-1 cells assessed as cell growth at 10^-8 M by sulforhodamine B assay; conditions: read-out: Activity
[13] = system: NCI-H226; experiment: Growth inhibition of human NCI-H226 cells assessed as cell growth at 10^-7 M by sulforhodamine B assay; conditions: read-out: Activity
[14] = system: SNB-75; experiment: Growth inhibition of human SNB75 cells by sulforhodamine B assay
[15] = system: UO-31; experiment: Growth inhibition of human UO31 cells assessed as cell growth at 10^-7 M by sulforhodamine B assay; conditions: read-out: Activity
[16] = system: UACC-62; experiment: Growth inhibition of human UACC62 cells assessed as cell growth at 10^-4 M by sulforhodamine B assay; conditions: read-out: Activity
[17] = system: U-251; experiment: Growth inhibition of human U251 cells by sulforhodamine B assay
[18] = system: SNB-19; experiment: Growth inhibition of human SNB19 cells assessed as cell growth at 10^-7 M by sulforhodamine B assay; conditions: read-out: Activity
[19] = system: Malme-3M; experiment: Growth inhibition of human MALME-3M cells assessed as cell growth at 10^-7 M by sulforhodamine B assay; conditions: read-out: Activity
[20] = system: IGROV-1; experiment: Growth inhibition of human IGROV1 cells assessed as cell growth at 10^-6 M by sulforhodamine B assay; conditions: read-out: Activity
[21] = system: SK-MEL-28; experiment: Growth inhibition of human SK-MEL-28 cells assessed as cell growth at 10^-7 M by sulforhodamine B assay; conditions: read-out: Activity
[22] = system: MDA-MB-435; experiment: Growth inhibition of human MDA-MB-435 cells assessed as cell growth at 10^-6 M by sulforhodamine B assay; conditions: read-out: Activity
[23] = system: LOX IMVI; experiment: Growth inhibition of human LOXIMVI cells assessed as cell growth at 10^-6 M by sulforhodamine B assay; conditions: read-out: Activity
[24] = system: HT-29; experiment: Growth inhibition of human HT-29 cells assessed as cell growth at 10^-6 M by sulforhodamine B assay; conditions: read-out: Activity
[25] = system: PC-3; experiment: Growth inhibition of human PC3 cells by sulforhodamine B assay
[26] = system: NCI-H460; experiment: Growth inhibition of human NCI-H460 cells by sulforhodamine B assay
[27] = system: HL-60(TB); experiment: Growth inhibition of human HL-60(TB) cells assessed as cell growth at 10^-6 M by sulforhodamine B assay; conditions: read-out: Activity
[28] = system: TK-10; experiment: Growth inhibition of human TK10 cells assessed as cell growth at 10^-8 M by sulforhodamine B assay; conditions: read-out: Activity
[29] = system: SF-295; experiment: Growth inhibition of human SF295 cells assessed as cell growth at 10^-8 M by sulforhodamine B assay; conditions: read-out: Activity
[30] = system: MDA-MB-231; experiment: Growth inhibition of human MDA-MB-231 cells assessed as cell growth at 10^-7 M by sulforhodamine B assay; conditions: read-out: Activity
[31] = system: MDA-MB-231; experiment: Growth inhibition of human MDA-MB-231 cells assessed as cell growth at 10^-6 M by sulforhodamine B assay; conditions: read-out: Activity
[32] = system: CCRF-CEM; experiment: Growth inhibition of human CCRF-CEM cells assessed as cell growth at 10^-6 M by sulforhodamine B assay; conditions: read-out: Activity
[33] = system: KM12; experiment: Growth inhibition of human KM12 cells by sulforhodamine B assay
[34] = system: MOLT-4; experiment: Growth inhibition of human MOLT4 cells assessed as cell growth at 10^-4 M by sulforhodamine B assay; conditions: read-out: Activity
[35] = system: SF-539; experiment: Growth inhibition of human SF539 cells assessed as cell growth at 10^-8 M by sulforhodamine B assay; conditions: read-out: Activity
[36] = system: OVCAR-4; experiment: Growth inhibition of human OVCAR4 cells assessed as cell growth at 10^-6 M by sulforhodamine B assay; conditions: read-out: Activity
[37] = system: HCT-116; experiment: Growth inhibition of human HCT116 cells assessed as cell growth at 10^-8 M by sulforhodamine B assay; conditions: read-out: Activity
[38] = system: DU-145; experiment: Growth inhibition of human DU145 cells assessed as cell growth at 10^-4 M by sulforhodamine B assay; conditions: read-out: Activity
[39] = system: K562; experiment: Growth inhibition of human K562 cells assessed as cell growth at 10^-6 M by sulforhodamine B assay; conditions: read-out: Activity
[40] = system: HOP-62; experiment: Growth inhibition of human HOP62 cells assessed as cell growth at 10^-8 M by sulforhodamine B assay; conditions: read-out: Activity
[41] = system: RPMI-8226; experiment: Growth inhibition of human RPMI8226 cells assessed as cell growth at 10^-6 M by sulforhodamine B assay; conditions: read-out: Activity
[42] = system: OVCAR-5; experiment: Growth inhibition of human OVCAR5 cells assessed as cell growth at 10^-7 M by sulforhodamine B assay; conditions: read-out: Activity
[43] = read-out: LC50 (the source's name)
[44] = read-out: pLC50 (the source's name) (converted)

Q: Which results are given for `CC(C)=CC(=O)O[C@@H]1CC(C)(C)C[C@H]2C3=CC[C@@H]4[C@@]5(C)CC[C@H](O)C(C)(C)[C@@H]5CC[C@@]4(C)[C@]3(C)CC[C@@]12C(=O)O` [Reduced Lantadene B]?
A: growth at 0.01 µM [1]: 100%; growth at 0.1 µM [2]: 92%; growth at 0.01 µM [3]: 91%; growth at 0.1 µM [4]: 106%; growth at 0.1 µM [5]: 87%; growth at 100 µM [6]: -70%; GI50 ([7]; read-out: GI50): 2.58 µM; CC50 [7, 43]: 35.6 µM; TGI ([7]; read-out: TGI): 7.69 µM; GI50 ([7]; read-out: pGI50 (converted)): 2.57 µM; CC50 [7, 44]: 35.5 µM; TGI ([7]; read-out: pTGI (converted)): 7.76 µM; growth at 0.1 µM [8]: 91%; growth at 100 µM [9]: -39%; growth at 0.1 µM [10]: 105%; growth at 0.1 µM [11]: 93%; growth at 0.01 µM [12]: 97%; growth at 0.1 µM [13]: 88%; GI50 ([14]; read-out: GI50): 12.7 µM; CC50 [14, 43]: > 100 µM; TGI ([14]; read-out: TGI): 41.2 µM; GI50 ([14]; read-out: pGI50 (converted)): 12.9 µM; CC50 [14, 44]: > 100 µM; TGI ([14]; read-out: pTGI (converted)): 40.7 µM; growth at 0.1 µM [15]: 95%; growth at 100 µM [16]: -81%; GI50 ([17]; read-out: GI50): 2.62 µM; CC50 [17, 43]: 71.6 µM; TGI ([17]; read-out: TGI): 16.7 µM; GI50 ([17]; read-out: pGI50 (converted)): 2.63 µM; CC50 [17, 44]: 70.8 µM; TGI ([17]; read-out: pTGI (converted)): 16.6 µM; growth at 0.1 µM [18]: 86%; growth at 0.1 µM [19]: 94%; growth at 1 µM [20]: 101%; growth at 0.1 µM [21]: 100%; growth at 1 µM [22]: 95%; growth at 1 µM [23]: 88%; growth at 1 µM [24]: 89%; GI50 ([25]; read-out: GI50): 3.6 µM; CC50 [25, 43]: 64 µM; TGI ([25]; read-out: TGI): 21.9 µM; GI50 ([25]; read-out: pGI50 (converted)): 3.63 µM; CC50 [25, 44]: 64.6 µM; TGI ([25]; read-out: pTGI (converted)): 21.9 µM; GI50 ([26]; read-out: GI50): 3.07 µM; LC50 ([26]; read-out: LC50): > 100 µM; TGI ([26]; read-out: TGI): 66.8 µM; GI50 ([26]; read-out: pGI50 (converted)): 3.09 µM; LC50 ([26]; read-out: pLC50 (converted)): > 100 µM; TGI ([26]; read-out: pTGI (converted)): 66.1 µM; growth at 1 µM [27]: 96%; growth at 0.01 µM [28]: 92%; growth at 0.01 µM [29]: 95%; growth at 0.1 µM [30]: 97%; growth at 1 µM [31]: 85%; growth at 1 µM [32]: 75%; GI50 ([33]; read-out: GI50): 0.862 µM; LC50 (50% net cell kill) ([33]; read-out: LC50): > 100 µM; TGI ([33]; read-out: TGI): 19.6 µM; GI50 ([33]; read-out: pGI50 (converted)): 0.871 µM; LC50 (50% net cell kill) ([33]; read-out: pLC50 (converted)): > 100 µM; TGI ([33]; read-out: pTGI (converted)): 19.5 µM; growth at 100 µM [34]: -43%; growth at 0.01 µM [35]: 96%; growth at 1 µM [36]: 83%; growth at 0.01 µM [37]: 99%; growth at 100 µM [38]: -75%; growth at 1 µM [39]: 69%; growth at 0.01 µM [40]: 85%; growth at 1 µM [41]: 65%; growth at 0.1 µM [42]: 111%
